In PMC7659001, “The auxin-inducible degron 2 technology provides sharp degradation control in yeast, mammalian cells, and mice” (Nature Communications, 2020):

Tests used:
Type in all cases: cell-based
[1] = biological target: T1, OsTIR1 (Oryza sativa subsp. japonica, UniProt P93830+Q7XVM8); experiment: mAID-EGFP-NLS reporter degradation dose response in HCT116 cells (DC50)
T1 construct: gene Os04g0395600; with mAID degron (Arabidopsis IAA17); SCF (Skp1-Cul1)

[2] = biological target: T2, OsTIR1 (Oryza sativa, UniProt Q7XVM8); experiment: OsTIR1(WT) level in HCT116 cells raised by the inhibitor (suppressed autodegradation)
T2 construct: gene Os04g0395600
T2 sequence (Q7XVM8 1-575): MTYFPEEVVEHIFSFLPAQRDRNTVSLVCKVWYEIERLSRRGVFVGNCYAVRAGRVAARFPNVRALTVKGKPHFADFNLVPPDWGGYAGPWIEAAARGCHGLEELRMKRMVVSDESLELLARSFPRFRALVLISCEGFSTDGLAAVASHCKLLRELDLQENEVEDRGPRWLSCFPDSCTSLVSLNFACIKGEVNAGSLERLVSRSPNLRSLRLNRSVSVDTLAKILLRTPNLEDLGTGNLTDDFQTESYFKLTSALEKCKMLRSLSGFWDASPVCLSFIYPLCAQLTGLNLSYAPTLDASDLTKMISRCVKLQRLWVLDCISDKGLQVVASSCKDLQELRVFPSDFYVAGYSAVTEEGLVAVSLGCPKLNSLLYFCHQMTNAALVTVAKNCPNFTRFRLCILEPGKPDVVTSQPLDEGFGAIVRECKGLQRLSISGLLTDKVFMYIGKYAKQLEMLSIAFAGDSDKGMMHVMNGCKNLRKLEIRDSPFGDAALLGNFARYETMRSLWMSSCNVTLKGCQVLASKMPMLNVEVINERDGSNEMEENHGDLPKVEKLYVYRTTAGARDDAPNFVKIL

[3] = biological target: T3, OsTIR1 (Oryza sativa subsp. japonica, UniProt P93830+Q7XVM8, Q7XVM8:F74G); experiment: mAID-EGFP-NLS reporter degradation dose response in HCT116 cells (DC50)
T3 construct: gene Os04g0395600; with mAID degron (Arabidopsis IAA17); SCF (Skp1-Cul1)
T3 sequence (Q7XVM8 whole entry F74G): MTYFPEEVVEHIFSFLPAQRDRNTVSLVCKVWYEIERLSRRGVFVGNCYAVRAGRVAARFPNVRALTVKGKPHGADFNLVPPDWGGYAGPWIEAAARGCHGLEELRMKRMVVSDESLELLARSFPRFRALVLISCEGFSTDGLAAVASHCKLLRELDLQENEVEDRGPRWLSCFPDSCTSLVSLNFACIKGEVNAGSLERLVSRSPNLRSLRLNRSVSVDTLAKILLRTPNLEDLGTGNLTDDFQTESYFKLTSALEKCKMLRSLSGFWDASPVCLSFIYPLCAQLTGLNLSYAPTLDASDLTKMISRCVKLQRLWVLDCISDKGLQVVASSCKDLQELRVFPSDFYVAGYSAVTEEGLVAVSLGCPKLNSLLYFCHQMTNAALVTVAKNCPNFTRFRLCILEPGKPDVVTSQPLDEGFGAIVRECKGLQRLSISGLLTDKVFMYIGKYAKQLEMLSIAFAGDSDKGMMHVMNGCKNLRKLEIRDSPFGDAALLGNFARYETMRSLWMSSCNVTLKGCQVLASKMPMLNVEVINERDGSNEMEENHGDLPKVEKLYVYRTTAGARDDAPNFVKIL
T3 sequence (P93830 65-132 limits assumed): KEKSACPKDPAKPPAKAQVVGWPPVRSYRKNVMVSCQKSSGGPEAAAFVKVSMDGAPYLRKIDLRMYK

T1 sequence (P93830 whole entry, one chain of several): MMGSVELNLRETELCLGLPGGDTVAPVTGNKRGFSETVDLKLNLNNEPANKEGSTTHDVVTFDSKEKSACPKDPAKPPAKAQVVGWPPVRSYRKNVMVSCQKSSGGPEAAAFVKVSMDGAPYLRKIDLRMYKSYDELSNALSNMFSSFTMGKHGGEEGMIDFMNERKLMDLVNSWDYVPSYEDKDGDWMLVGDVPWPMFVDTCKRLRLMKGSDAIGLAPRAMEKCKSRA

Work on O=C(O)Cc1c[nH]c2ccccc12 [IAA, indole-3-acetic acid] yielded a DC50 [1] of 300 ± 30 nM.

With Cc1ccc(C(=O)CC(C(=O)O)c2c[nH]c3ccccc23)c(C)c1 (stereo not drawn) [auxinole] the “OsTIR1(WT) level in HCT116 cells raised by the inhibitor (suppressed autodegrada)” value [2] was “The expression level of OsTIR1(WT) was enhanced by the addition of an OsTIR1 inhibitor auxinole”.

In the case of O=C(O)Cc1c[nH]c2ccc(-c3ccccc3)cc12 [5-Ph-IAA, 5-phenyl-indole-3-acetic acid], the DC50 [3] is reported as 0.45 ± 0.01 nM.
